Measurements published in paper PMC7764795, “Physiological Response of Corynebacterium glutamicum to Indole” (Microorganisms, 2020).

Target: T1, Cg3388 (IhtR) (Corynebacterium glutamicum, UniProt Q8NL89)
T1 construct: gene Cgl3059; Cg3388 with N-terminal His-tag kept (pET16b-cg3388), E. coli BL21(DE3), Ni-NTA
T1 sequence (Q8NL89 1-287): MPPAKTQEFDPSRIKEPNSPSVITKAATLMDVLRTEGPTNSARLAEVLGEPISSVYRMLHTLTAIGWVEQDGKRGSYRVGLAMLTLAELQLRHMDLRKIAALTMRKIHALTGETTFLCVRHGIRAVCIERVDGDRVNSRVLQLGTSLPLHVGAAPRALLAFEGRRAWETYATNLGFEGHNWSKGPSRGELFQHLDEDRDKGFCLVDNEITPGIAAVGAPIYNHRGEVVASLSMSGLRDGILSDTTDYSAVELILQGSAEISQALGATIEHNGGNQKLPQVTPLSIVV
Assay: EMSA, release of target DNA by effector
Type: binding
Conditions: threshold, not a constant; Cg3388 in 153-fold molar excess over 45 ng cg3388-iolT2 intergenic DNA; pH 7.5, 10 mM MgCl2, room temperature; effector (inducer) of repressor

| SMILES | concentration above which DNA binding is interfered with |
| --- | --- |
| Oc1ccc(O)c(O)c1 [1,2,4-trihydroxybenzene] | > 0.05 mM |
| Oc1ccc(O)cc1 [hydroquinone] | > 0.5 mM |
| c1ccc2[nH]ccc2c1 [indole] | > 4 mM |
